Molecules are shown by their SMILES.

For the assay, the target named is SUV420H1 enzyme (Homo sapiens, UniProt Q4FZB7). The assay can be described thus: TR-FRET SAH SUV420H1 enzyme inhibition assay. Format: biochemical. Conditions: Histone Peptide H4(8-30)me1 and SAM, overnight at room temp, TR-FRET detection of SAH, read-out: TR-FRET SAH_SUV420H1 IC50. In short, it runs like this: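 SUV420H1 (90 nM) preincubated 30 min with compound (3-fold dilutions, 50 to 0.00075 μM), then H4(8-30)me1 peptide 5 nM and SAM 4 nM added, overnight at room temp. SAH product detected by TR-FRET with Tb anti-SAH antibody and Oregon Green-SAH in RIPA buffer, 4 h; IC50 from Hill fit, asymptotes fixed 0-100%.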
SUV420H1 enzyme, sequence (Q4FZB7 whole entry): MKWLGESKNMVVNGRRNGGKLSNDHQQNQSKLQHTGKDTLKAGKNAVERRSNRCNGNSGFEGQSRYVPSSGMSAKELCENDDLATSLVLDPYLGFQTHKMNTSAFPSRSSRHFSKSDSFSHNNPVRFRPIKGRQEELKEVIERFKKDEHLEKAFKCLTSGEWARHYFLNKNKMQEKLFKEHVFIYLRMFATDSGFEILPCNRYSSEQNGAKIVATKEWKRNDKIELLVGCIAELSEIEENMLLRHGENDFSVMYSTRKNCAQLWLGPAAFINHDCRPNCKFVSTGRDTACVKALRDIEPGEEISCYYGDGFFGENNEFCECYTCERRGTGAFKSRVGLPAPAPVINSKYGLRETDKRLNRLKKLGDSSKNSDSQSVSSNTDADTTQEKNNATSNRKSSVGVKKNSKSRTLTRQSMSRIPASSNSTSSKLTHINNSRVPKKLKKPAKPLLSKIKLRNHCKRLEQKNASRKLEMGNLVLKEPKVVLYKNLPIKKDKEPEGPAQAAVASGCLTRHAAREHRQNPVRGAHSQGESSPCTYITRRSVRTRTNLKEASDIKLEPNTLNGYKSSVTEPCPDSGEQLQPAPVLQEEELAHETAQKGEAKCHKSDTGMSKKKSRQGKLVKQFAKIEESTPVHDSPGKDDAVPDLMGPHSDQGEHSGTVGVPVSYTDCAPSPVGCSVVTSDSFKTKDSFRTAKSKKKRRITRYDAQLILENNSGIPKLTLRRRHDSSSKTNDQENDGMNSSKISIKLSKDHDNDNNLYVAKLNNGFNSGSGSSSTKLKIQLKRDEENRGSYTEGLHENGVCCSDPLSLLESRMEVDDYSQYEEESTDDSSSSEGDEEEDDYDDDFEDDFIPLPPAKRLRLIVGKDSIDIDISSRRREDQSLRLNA
`N#Cc1ccccc1C(=O)NCc1cc2cc(Cl)cc(Cn3cnc4c(N)ncnc43)c2[nH]1` [Example 274, N-({7-[(6-amino-9H-purin-9-yl)methyl]-5-chloro-1H-indol-2-yl}methyl)-2-cyanobenzamide]: the 50% inhibitory concentration (IC50) stood at 11.3 µM.

With `Nc1ncnc2c1ncn2Cc1cc(Cl)cc2cc(CNCc3c(F)cccc3F)[nH]c12` [Example 219, 9-[(5-chloro-2-{[(2,6-difluorobenzyl)amino]methyl}-1H-indol-7-yl)methyl]-9H-purin-6-amine], the IC50 was found to be 3.13 µM.

On to `Nc1ncnc2c1ncn2Cc1cc(Cl)cc2cc(CNC(=O)c3nc4[nH]ccc4cc3Cl)[nH]c12` [Example 349, N-({7-[(6-amino-9H-purin-9-yl)methyl]-5-chloro-1H-indol-2-yl}methyl)-5-chloro-1H-pyrrolo[2,3-b]pyridine-6-carboxamide], for which the IC50 turned out to be 8.78 µM.

As to `Cc1ccccc1C(=O)NCc1cc2cc(Cl)cc(Cn3cnc4c(N)ncnc43)c2[nH]1` [Example 248, N-({7-[(6-amino-9H-purin-9-yl)methyl]-5-chloro-1H-indol-2-yl}methyl)-2-methylbenzamide], the concentration for half-maximal inhibition (IC50) turned out to be 0.571 µM.

For `NCc1cc2cc(-c3ccncc3)cc(Cn3cnc4c(N)ncnc43)c2[nH]1` [Example 21, 9-{[2-(aminomethyl)-5-(pyridin-4-yl)-1H-indol-7-yl]methyl}-9H-purin-6-amine], the IC50 is 0.78 µM.

Turning to `CNC(=O)CCc1c[nH]c2c(Cn3cnc4c(N)ncnc43)cccc12` [Example 2, 3-{7-[(6-amino-9H-purin-9-yl)methyl]-1H-indol-3-yl}-N-methylpropanamide], the IC50 was found to be 36.9 µM.

With `Cc1ccsc1C(=O)NCc1cc2cc(Cl)cc(Cn3cnc4c(N)ncnc43)c2[nH]1` [Example 157, N-({7-[(6-amino-9H-purin-9-yl)methyl]-5-chloro-1H-indol-2-yl}methyl)-3-methylthiophene-2-carboxamide], the IC50 is 2.06 µM.

For `CN(C)c1cccc(C(=O)NCc2cc3cc(Cl)cc(Cn4cnc5c(N)ncnc54)c3[nH]2)c1` [Example 309, N-({7-[(6-amino-9H-purin-9-yl)methyl]-5-chloro-1H-indol-2-yl}methyl)-3-(dimethylamino)benzamide], the IC50 was 7.31 µM.

With `Cc1cc(C#N)ccc1C(=O)NCc1cc2cc(C3=CCNCC3)cc(Cn3cnc4c(N)ncnc43)c2[nH]1` [Example 305, N-({7-[(6-amino-9H-purin-9-yl)methyl]-5-(1,2,3,6-tetrahydropyridin-4-yl)-1H-indol-2-yl}methyl)-4-cyano-2-methylbenzamide], the IC50 is 0.0367 µM.

Regarding `Nc1ncnc2c1ncn2Cc1cc(Cl)cc2cc(CNC(=O)c3cnc4ccoc4c3)[nH]c12` [Example 340, N-({7-[(6-amino-9H-purin-9-yl)methyl]-5-chloro-1H-indol-2-yl}methyl)furo[3,2-b]pyridine-6-carboxamide], the IC50 stood at 0.807 µM.

Consider `Nc1ncnc2c1ncn2Cc1cc(Cl)cc2cc(CNC(=O)c3c(O)cccc3F)[nH]c12` [Example 229, N-({7-[(6-amino-9H-purin-9-yl)methyl]-5-chloro-1H-indol-2-yl}methyl)-2-fluoro-6-hydroxybenzamide], for which the IC50 is over 50 µM.

On to `CC(C)c1ccccc1C(=O)NCc1cc2cc(Cl)cc(Cn3cnc4c(N)ncnc43)c2[nH]1` [Example 314, N-({7-[(6-amino-9H-purin-9-yl)methyl]-5-chloro-1H-indol-2-yl}methyl)-2-(propan-2-yl)benzamide], for which the IC50 is 1.93 µM.

As for `Cc1noc(C)c1C(=O)NCc1cc2cc(-c3cccc(C(=O)NC4CC4)c3)cc(Cn3cnc4c(N)ncnc43)c2[nH]1` [Example 178, N-({7-[(6-amino-9H-purin-9-yl)methyl]-5-[3-(cyclopropylcarbamoyl)phenyl]-1H-indol-2-yl}methyl)-3,5-dimethyl-1,2-oxazole-4-carboxamide], the IC50 is 0.116 µM.

Consider `Cc1nnccc1C(=O)NCc1cc2cc(C3=CCNCC3)cc(Cn3cnc4c(N)ncnc43)c2[nH]1` [Example 200, N-({7-[(6-amino-9H-purin-9-yl)methyl]-5-(1,2,3,6-tetrahydropyridin-4-yl)-1H-indol-2-yl}methyl)-3-methylpyridazine-4-carboxamide], for which the IC50 was 0.1 µM.

For the compound `Nc1ncnc2c1ncn2Cc1cc(Cl)cc2cc(CNC(=O)c3c(F)cccc3Br)[nH]c12` [Example 226, N-({7-[(6-amino-9H-purin-9-yl)methyl]-5-chloro-1H-indol-2-yl}methyl)-2-bromo-6-fluorobenzamide], the IC50 worked out at 0.275 µM.

Turning to `Cc1nnccc1C(=O)NCc1cc2cc(C3=CCN(S(C)(=O)=O)CC3)cc(Cn3cnc4c(N)ncnc43)c2[nH]1` [Example 202, N-({7-[(6-amino-9H-purin-9-yl)methyl]-5-[1-(methylsulfonyl)-1,2,3,6-tetrahydropyridin-4-yl]-1H-indol-2-yl}methyl)-3-methylpyridazine-4-carboxamide], the IC50 stood at 0.0641 µM.

As for `Nc1ncnc2c1ncn2Cc1cc(Cl)cc2cc(CNCc3ccccc3Br)[nH]c12` [Example 208, 9-[(2-{[(2-bromobenzyl)amino]methyl}-5-chloro-1H-indol-7-yl)methyl]-9H-purin-6-amine], the concentration for half-maximal inhibition (IC50) came out at 1.89 µM.

Regarding `Nc1ncnc2c1ncn2Cc1cc(Cl)cc2cc(CNC(=O)c3ccc4cn[nH]c4c3)[nH]c12` [Example 342, N-({7-[(6-amino-9H-purin-9-yl)methyl]-5-chloro-1H-indol-2-yl}methyl)-1H-indazole-6-carboxamide], the IC50 turned out to be 0.947 µM.

For the compound `Nc1ncnc2c1ncn2Cc1cc(Cl)cc2cc(CNC(=O)c3ccns3)[nH]c12` [Example 137, N-({7-[(6-amino-9H-purin-9-yl)methyl]-5-chloro-1H-indol-2-yl}methyl)-1,2-thiazole-5-carboxamide], the IC50 worked out at 2.04 µM.

With `NCc1cc2cc(Cl)cc(Cn3cnc4c(N)ncnc43)c2[nH]1` [Example 9, 9-{[2-(aminomethyl)-5-chloro-1H-indol-7-yl]methyl}-9H-purin-6-amine], the IC50 came out at 1.17 µM.

As for `NCc1cc2c(-c3ccccc3Cl)ccc(Cn3cnc4c(N)ncnc43)c2[nH]1` [Example 72, 9-{[2-(aminomethyl)-4-(2-chlorophenyl)-1H-indol-7-yl]methyl}-9H-purin-6-amine], the IC50 stood at 1.81 µM.

On to `Nc1ncnc2c1ncn2Cc1cc(Cl)cc2cc(CNCc3cccc(Cl)c3F)[nH]c12` [Example 218, 9-[(5-chloro-2-{[(3-chloro-2-fluorobenzyl)amino]methyl}-1H-indol-7-yl)methyl]-9H-purin-6-amine], for which the half-inhibitory concentration (IC50) is 2.33 µM.

As for `Cc1noc(C)c1C(=O)NCc1cc2cc(-c3ccc(F)cc3)cc(Cn3cnc4c(N)ncnc43)c2[nH]1` [Example 165, N-({7-[(6-amino-9H-purin-9-yl)methyl]-5-(4-fluorophenyl)-1H-indol-2-yl}methyl)-3,5-dimethyl-1,2-oxazole-4-carboxamide], the IC50 is 0.233 µM.

As to `COc1c(C(=O)NCc2cc3cc(Cl)cc(Cn4cnc5c(N)ncnc54)c3[nH]2)cnc2c1c(C)nn2C` [Example 373, N-({7-[(6-amino-9H-purin-9-yl)methyl]-5-chloro-1H-indol-2-yl}methyl)-4-methoxy-1,3-dimethyl-1H-pyrazolo[3,4-b]pyridine-5-carboxamide], the IC50 turned out to be 0.0844 µM.

As for `Nc1ncnc2c1ncn2Cc1cc(Cl)cc2cc(CNC(=O)[C@H]3CCCN3)[nH]c12` [Example 116, (2R)—N-({7-[(6-amino-9H-purin-9-yl)methyl]-5-chloro-1H-indol-2-yl}methyl)pyrrolidine-2-carboxamide], the IC50 was determined as 8.28 µM.

`CN(C)C(=O)CCc1c[nH]c2c(Cn3cnc4c(N)ncnc43)cccc12` [Example 3, 3-{7-[(6-amino-9H-purin-9-yl)methyl]-1H-indol-3-yl}-N,N-dimethylpropanamide]: the IC50 is 35 µM.

Regarding `N#Cc1ccc(-c2cc(Cn3cnc4c(N)ncnc43)c3[nH]c(CN)cc3c2)cc1` [Example 38, 4-{2-(aminomethyl)-7-[(6-amino-9H-purin-9-yl)methyl]-1H-indol-5-yl}benzonitrile], the IC50 is 0.81 µM.

As for `Nc1ncnc2c1ncn2Cc1cc(Cl)cc2cc(CNC(=O)c3ccccc3F)[nH]c12` [Example 225, N-({7-[(6-amino-9H-purin-9-yl)methyl]-5-chloro-1H-indol-2-yl}methyl)-2-fluorobenzamide], the IC50 was over 50 µM.

Consider `N#Cc1cccc(C(=O)NCc2cc3cc(Cl)cc(Cn4cnc5c(N)ncnc54)c3[nH]2)c1` [Example 273, N-({7-[(6-amino-9H-purin-9-yl)methyl]-5-chloro-1H-indol-2-yl}methyl)-3-cyanobenzamide], for which the IC50 stood at 1.5 µM.

In the case of `Nc1ncnc2c1ncn2Cc1cc(Cl)cc2cc(CNC(=O)c3ccc4ncsc4c3)[nH]c12` [Example 335, N-({7-[(6-amino-9H-purin-9-yl)methyl]-5-chloro-1H-indol-2-yl}methyl)-1,3-benzothiazole-6-carboxamide], the IC50 worked out at 0.401 µM.

For `CC(C)(O)CC(=O)NCc1cc2cc(Cl)cc(Cn3cnc4c(N)ncnc43)c2[nH]1` [Example 103, N-({7-[(6-amino-9H-purin-9-yl)methyl]-5-chloro-1H-indol-2-yl}methyl)-3-hydroxy-3-methylbutanamide], the IC50 stood at 25.3 µM.

For the compound `N#Cc1ccc(-c2ccc(Cn3cnc4c(N)ncnc43)c3[nH]c(CN)cc23)cc1` [Example 82, 4-{2-(aminomethyl)-7-[(6-amino-9H-purin-9-yl)methyl]-1H-indol-4-yl}benzonitrile], the IC50 was 0.939 µM.

For `Nc1ncnc2c1ncn2Cc1cc(Cl)cc2cc(CNC(=O)c3cccnc3)[nH]c12` [Example 196, N-({7-[(6-amino-9H-purin-9-yl)methyl]-5-chloro-1H-indol-2-yl}methyl)pyridine-3-carboxamide], the IC50 was 0.905 µM.

In the case of `Cc1[nH]c2ccc(C(=O)NCc3cc4cc(Cl)cc(Cn5cnc6c(N)ncnc65)c4[nH]3)cc2c1C` [Example 375, N-({7-[(6-amino-9H-purin-9-yl)methyl]-5-chloro-1H-indol-2-yl}methyl)-2,3-dimethyl-1H-indole-5-carboxamide], the IC50 amounted to 12.4 µM.
